Structures can show the parent of a compound that is named as a salt. Where two headings read alike, the source gives them in different places.
What was measured:
Type in all cases: biochemical
[1] = biological target: phosphorylated p-38-alpha kinase (Homo sapiens, UniProt Q16539); experiment: P-38 alpha kinase assay P1 (coupled spectrophotometric, 2 h pre-incubation)
Abl kinase = biological target: T1, Abl kinase (Homo sapiens, UniProt P00519); experiment: Abl kinase assay A2 (as A1, 1.1 nM enzyme, 2 h pre-incubation, 0.5 mM ATP)
T1 sequence (P00519 229-512): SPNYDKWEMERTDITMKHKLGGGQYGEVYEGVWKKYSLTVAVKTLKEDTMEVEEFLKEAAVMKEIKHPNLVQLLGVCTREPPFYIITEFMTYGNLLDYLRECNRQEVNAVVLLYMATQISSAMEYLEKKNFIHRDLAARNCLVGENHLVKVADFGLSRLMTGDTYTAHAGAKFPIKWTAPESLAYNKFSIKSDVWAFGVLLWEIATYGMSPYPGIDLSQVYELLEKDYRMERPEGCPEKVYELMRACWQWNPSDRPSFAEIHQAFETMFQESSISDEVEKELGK
Method: (§1) IC50 values were calculated from a series of percent inhibition values determined at a range of inhibitor concentrations using software routines as implemented in the GraphPad Prism software package.

B-Raf(V599E) kinase = B-Raf(V599E) kinase (Homo sapiens, UniProt P15056, V600E); experiment: B-Raf(V599E) kinase assay B1 (construct 1, MEK1 substrate, coupled spectrophotometric)
Method: The test compounds were incubated with the reaction mixtureat 30° C. for 2 h. […] The reaction rate was calculated using the […] time frame. […] IC50 values were calculated from a series of percent inhibition values determined at a range of inhibitor concentrations using software routines as implemented in the GraphPad Prism software package.

KDR kinase = KDR kinase (Homo sapiens, UniProt P35968, DEL940-989/E990V); experiment: KDR kinase assay K1 (pyruvate kinase/lactate dehydrogenase coupled, spectrophotometric); conditions: Method K1; read-out: KDR Data (IC50)
Method: as §1

[2] = method P1 (2 h pre-incubation), read-out: P-38 Data
[3] = Method A2, read-out: Abl Data (IC50)

Sequence of phosphorylated p-38-alpha kinase (Q16539 1-360 isoform Q16539-2): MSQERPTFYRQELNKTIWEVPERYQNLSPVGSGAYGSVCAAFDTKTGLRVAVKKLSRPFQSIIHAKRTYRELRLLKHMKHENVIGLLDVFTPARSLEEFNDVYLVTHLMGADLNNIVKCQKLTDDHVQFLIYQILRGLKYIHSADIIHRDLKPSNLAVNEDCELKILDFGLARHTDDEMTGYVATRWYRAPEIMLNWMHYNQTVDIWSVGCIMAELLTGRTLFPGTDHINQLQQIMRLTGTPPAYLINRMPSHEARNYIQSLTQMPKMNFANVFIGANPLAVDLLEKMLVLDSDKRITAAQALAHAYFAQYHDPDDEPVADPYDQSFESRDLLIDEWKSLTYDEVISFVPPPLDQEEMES
Sequence of B-Raf(V599E) kinase (P15056 with tags, fused parts or gaps V600E): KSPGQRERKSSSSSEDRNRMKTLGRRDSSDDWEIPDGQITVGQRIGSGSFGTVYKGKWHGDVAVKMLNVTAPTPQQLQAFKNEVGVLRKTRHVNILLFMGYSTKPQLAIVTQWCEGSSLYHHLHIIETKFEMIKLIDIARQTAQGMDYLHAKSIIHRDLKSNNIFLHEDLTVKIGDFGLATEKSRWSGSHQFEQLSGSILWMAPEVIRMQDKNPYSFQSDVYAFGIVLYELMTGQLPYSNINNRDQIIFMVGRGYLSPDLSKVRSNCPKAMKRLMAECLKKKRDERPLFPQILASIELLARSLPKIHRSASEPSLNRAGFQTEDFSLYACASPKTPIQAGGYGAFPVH
Sequence of KDR kinase (P35968 with tags, fused parts or gaps DEL940-989/E990V): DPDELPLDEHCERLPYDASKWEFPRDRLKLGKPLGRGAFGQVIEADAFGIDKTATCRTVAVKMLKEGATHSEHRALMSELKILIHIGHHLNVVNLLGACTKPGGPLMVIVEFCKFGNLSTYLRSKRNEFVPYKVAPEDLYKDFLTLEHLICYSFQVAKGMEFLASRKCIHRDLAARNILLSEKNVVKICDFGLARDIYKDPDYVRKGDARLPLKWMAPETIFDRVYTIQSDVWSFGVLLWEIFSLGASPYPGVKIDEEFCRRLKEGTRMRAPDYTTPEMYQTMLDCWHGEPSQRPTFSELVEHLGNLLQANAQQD

| SMILES | IC50 [1, 2] | IC50 (Abl kinase; [3]) | IC50 (B-Raf(V599E) kinase) | IC50 (KDR kinase) | IC50 [1] | IC50 (Abl kinase) |
| --- | --- | --- | --- | --- | --- | --- |
| Cn1c(=O)c(-c2cccc(NC(=O)Nc3cc(C(C)(C)C)nn3-c3ccc4c(c3)CCC(=O)N4)c2)cc2cncnc21 [Example 132, 1-(3-t-butyl-1-(2-oxo-1,2,3,4-tetrahydroquinolin-6-yl)-1H-pyrazol-5-yl)-3-(3-(8-methyl-7-oxo-7,8-dihydropyrido[2,3-d]pyrimidin-6-yl)phenyl)urea] | 59 nM | 13 nM | 4.8 nM | – | – | – |
| CNC(=O)c1cc(Oc2ccc(NC(=O)Nc3cc(C(C)(C)C)nn3-c3ccc4[nH]c(=O)ccc4c3)cc2)ccn1 [Example 159, 1-(3-t-butyl-1-(2-oxo-1,2-dihydroquinolin-6-yl)-1H-pyrazol-5-yl)-3-(4-(2-(methylcarbamoyl)pyridin-4-yloxy)phenyl)urea] | 72 nM | 2.3 nM | 14 nM | – | – | – |
| CNC(=O)c1cc(Oc2ccc(NC(=O)Nc3cc(C(C)(C)C)nn3-c3ccc4nc(N(C)C)ccc4c3)cc2)ccn1 [Example 175, 1-(3-t-butyl-1-(2-(dimethylamino)quinolin-6-yl)-1H-pyrazol-5-yl)-3-(4-(2-(methylcarbamoyl)pyridin-4-yloxy)phenyl)urea] | 160 nM | 1.5 nM | 30 nM | – | – | – |
| CC(C)(C)c1cc(NC(=O)Nc2cc(F)c(F)cc2F)n(-c2cc(CC(=O)NCC(O)CO)c3ccccc3c2)n1 (centres unmarked) [Example 94, 1-(3-t-butyl-1-(4-(2-(2,3-dihydroxypropyl-amino)-2-oxoethyl)naphthalen-2-yl)-1H-pyrazol-5-yl)-3-(2,4,5-trifluorophenyl)urea] | 68 nM | 130 nM | 4.8 nM | – | – | – |
| CC(C)(C)c1cc(NC(=O)Nc2cccc(Cl)c2Cl)n(-c2ccc3c(c2)CNCC3)n1 [Example 123, 1-[3-t-butyl-1-(1,2,3,4-tetrahydroisoquinolin-7-yl)-1H-pyrazol-5-yl]-3-(2,3-dichloro-phenyl)urea] | – | 290 nM | 4.9 nM | 190 nM | – | – |
| CC(C)(C)c1cc(NC(=O)Nc2cccc(Oc3cccnc3)c2)n(-c2cc(CO)c3ccccc3c2)n1 [Example 67, 1-(3-t-butyl-1-(4-(hydroxymethyl)naphthalen-2-yl)-1H-pyrazol-5-yl)-3-(3-(pyridin-3-yloxy)phenyl)urea] | 35 nM | 1 nM | 4.8 nM | – | – | – |
| CNC(=O)c1cc(Oc2ccc(NC(=O)Nc3cc(C(C)(C)C)nn3-c3ccc4nc(NCCN)ccc4c3)cc2)ccn1 [Example 172, 1-(1-(2-(2-aminoethylamino)quinolin-6-yl)-3-t-butyl-1H-pyrazol-5-yl)-3-(4-(2-(methylcarbamoyl)pyridin-4-yloxy)phenyl)urea] | – | 1.9 nM | 29 nM | – | – | – |
| CC(C)(C)c1cc(NC(=O)Nc2cc(F)c(F)cc2F)n(-c2cc(CC(N)=O)c3ccccc3c2)n1 [Example 81, 1-(1-(4-(2-amino-2-oxoethyl)naphthalen-2-yl)-3-t-butyl-1H-pyrazol-5-yl)-3-(2,4,5-trifluorophenyl)urea] | – | 120 nM | 4.1 nM | – | – | – |
| CC(C)(C)c1cc(NC(=O)Nc2cc(F)cc(F)c2F)n(-c2cc(CC(=O)NCC(O)CO)c3ccccc3c2)n1 (centres unmarked) [Example 95, 1-(3-t-butyl-1-(4-(2-(2,3-dihydroxypropyl-amino)-2-oxoethyl)naphthalen-2-yl)-1H-pyrazol-5-yl)-3-(2,3,5-trifluorophenyl)urea] | – | 56 nM | 2.9 nM | – | – | – |
| CC(C)(C)c1cc(NC(=O)Nc2cc(F)c(F)cc2F)n(-c2ccc3c(c2)CCNC3)n1 [Example 146, 1-(3-t-butyl-1-(1,2,3,4-tetrahydroiso-quinolin-6-yl)-1H-pyrazol-5-yl)-3-(2,4,5-trifluorophenyl)-urea] | – | 190 nM | 8.8 nM | – | – | – |
| CC(C)(C)c1cc(NC(=O)Nc2cccc(Cl)c2Cl)n(-c2ccc3nc(N4CCNCC4)ccc3c2)n1 [Example 168, 1-(3-t-butyl-1-(2-(piperazin-1-yl)quinolin-6-yl)-1H-pyrazol-5-yl)-3-(2,3-dichlorophenyl)urea] | – | 1100 nM | 30 nM | – | – | – |
| Cn1c(=O)c(-c2cccc(NC(=O)Nc3cc(C4CCCC4)nn3-c3ccc4[nH]c(=O)ccc4c3)c2)cc2cncnc21 [Example 162, 1-(3-cyclopentyl-1-(2-oxo-1,2-dihydroquinolin-6-yl)-1H-pyrazol-5-yl)-3-(3-(8-methyl-7-oxo-7,8-dihydropyrido[2,3-d]pyrimidin-6-yl)phenyl)urea] | – | 80 nM | 6.7 nM | – | – | – |
| CC(C)(C)c1cc(NC(=O)Nc2cc(F)cc(F)c2F)n(-c2cc(CO)c3ccccc3c2)n1 [Example 65, 1-(3-t-butyl-1-(4-(hydroxymethyl)naphthalen-2-yl)-1H-pyrazol-5-yl)-3-(2,3,5-trifluorophenyl)urea] | – | 110 nM | 3 nM | – | – | – |
| Cn1c(=O)c(-c2cccc(NC(=O)Nc3cc(C(C)(C)C)nn3-c3ccc4c(c3)CC(C(N)=O)NC4)c2)cc2cncnc21 (centres unmarked) [Example 185, 1-(3-t-butyl-1-(3-carbamoyl-1,2,3,4-tetrahydroisoquinolin-6-yl)-1H-pyrazol-5-yl)-3-(3-(8-methyl-7-oxo-7,8-dihydropyrido[2,3-d]pyrimidin-6-yl)phenyl)urea dihydrochloride] | – | – | 6.9 nM | – | 23 nM | 2.7 nM |
| CNC(=O)c1cc(Oc2ccc(NC(=O)Nc3cc(C(C)(C)C)nn3-c3ccc4c(c3)CCNC4)cc2)ccn1 [Example 148, 1-(3-t-butyl-1-(1,2,3,4-tetrahydroisoquinolin-6-yl)-1H-pyrazol-5-yl)-3-(4-(2-(methylcarbamoyl)pyridin-4-yloxy)phenyl)urea] | – | 1.2 nM | 31 nM | – | – | – |
| CC(C)(C)c1cc(NC(=O)Nc2cccc(Oc3cncc(Cl)c3)c2)n(-c2ccc3c(c2)CCNC3)n1 [Example 150, 1-(3-t-butyl-1-(1,2,3,4-tetrahydroisoquinolin-6-yl)-1H-pyrazol-5-yl)-3-(3-(5-chloropyridin-3-yloxy)phenyl)urea] | – | 1.3 nM | 4.7 nM | – | – | – |
| CC(C)(C)c1cc(NC(=O)Nc2cccc(Oc3cccnc3)c2)n(-c2cc(CC(=O)NCC(O)CO)c3ccccc3c2)n1 (centres unmarked) [Example 97, 1-(3-t-butyl-1-(4-(2-(2,3-dihydroxypropyl-amino)-2-oxoethyl)naphthalen-2-yl)-1H-pyrazol-5-yl)-3-(3-(pyridin-3-yloxy)phenyl)urea] | – | 1.5 nM | 7.2 nM | – | – | – |
| CNC(=O)c1cc(Oc2ccc(NC(=O)Nc3cc(C4CCCC4)nn3-c3ccc4[nH]c(=O)ccc4c3)cc2)ccn1 [Example 163, 1-(3-cyclopentyl-1-(2-oxo-1,2-dihydroquinolin-6-yl)-1H-pyrazol-5-yl)-3-(4-(2-(methylcarbamoyl)pyridin-4-yloxy)phenyl)urea] | – | 6.3 nM | 18 nM | – | – | – |
| CC(C)(C)c1cc(NC(=O)Nc2cccc(C#N)c2)n(-c2cc(CN)c3ccccc3c2)n1 [Example 73, 1-(1-(4-(aminomethyl)naphthalen-2-yl)-3-t-butyl-1H-pyrazol-5-yl)-3-(3-cyanophenyl)urea] | – | 190 nM | 45 nM | – | – | – |
| CNC(=O)c1cc(Oc2ccc(NC(=O)Nc3cc(C(C)(C)C)nn3-c3ccc4nc(N5CC[C@@H](N(C)C)C5)ccc4c3)cc2)ccn1 [Example 173, 1-(3-t-butyl-1-(2-((R)-3-(dimethylamino)pyrrolidin-1-yl)quinolin-6-yl)-1H-pyrazol-5-yl)-3-(4-(2-(methylcarbamoyl)pyridin-4-yloxy)phenyl)urea] | – | 4.2 nM | 63 nM | – | – | – |

From patent US8163756B2 (priority 2004, dated 2012)
